According to patent publication US20250266123A1, “IN SILICO METHOD OF IDENTIFYING ALLOSTERIC HECT E3-LIGASE INHIBITORS” (Ramot at Tel-Aviv University Ltd., priority 2024, published 2025):

Assays:
human SMURF1 promoter = experiment: Human SMURF1 promoter-GFP reporter in HEK293 cells; type: cell-based; details: HEK293 stably transfected
Description: (§1) FIG. 13. (A) Screen for modulators of SMURF1 mRNA abundance in PASMCs. Human PASMCs from PAH patients were treated with agents that are associated with PAH, including cytokines, chemokines, growth factors, and small molecule pathway probes, and were cultured under hypoxic conditions to identify modulators of SMURF1 mRNA (n=2 donors). […] The human SMURF1 promoter was stably transfected into HEK293 cells upstream of a GFP sequence.

E6AP = molecular target: T1, E6AP (Homo sapiens, UniProt Q05086, K489R); experiment: E. coli split-CAT E6AP reporter system; type: cell-based
T1 construct: Similarly, E6AP453-852: wild-type HECTd, K466R or catalytic dead HECTd-C820A; expressed in transfected cells; host or cells: Mach1-T1R E. coli
T1 sequence (Q05086 453-852 isoform Q05086-2 K466R): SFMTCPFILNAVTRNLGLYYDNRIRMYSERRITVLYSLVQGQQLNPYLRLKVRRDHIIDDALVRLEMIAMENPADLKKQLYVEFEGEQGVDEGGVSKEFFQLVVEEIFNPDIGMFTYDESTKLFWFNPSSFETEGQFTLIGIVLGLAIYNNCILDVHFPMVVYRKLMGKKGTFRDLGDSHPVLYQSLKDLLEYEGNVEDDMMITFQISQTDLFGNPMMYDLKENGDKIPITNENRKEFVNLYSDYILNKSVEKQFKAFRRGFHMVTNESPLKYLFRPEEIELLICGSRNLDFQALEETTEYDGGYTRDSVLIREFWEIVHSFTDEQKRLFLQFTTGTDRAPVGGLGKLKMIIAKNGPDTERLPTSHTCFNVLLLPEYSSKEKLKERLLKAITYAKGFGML
Description: (§2) Assays were performed as previously described.84,85 The selection plasmids were co-transformed into Mach1™-T1R E. coli cells. All growth assays were performed in LB agar or liquid at 37° C. Optimization of chloramphenicol (CAM) concentrations were performed according to the largest growth shift between the hyperactive mutant to the catalytic dead mutant in SMURF1 (ΔC2-K381R; ΔC2-C725A) or in E6AP (HECTd-K466R; HECTd-C820A) at each assay as previously described. The disclosers constructed a split-CAT based E3-dependent Rpn10 full length ubiquitylation cascade to monitor the effect of inhibitor and point mutations in ubiquitin E3 ligases. Specifically, yeast Rpn10 was tethered to N-CAT as a general ubiquitylation target and co-expressed with C-CAT-Ub, E1, E2 and human SMURF1235-757: wild-type DC2, K381R or catalytic dead C725A. Similarly, E6AP453-852: wild-type HECTd, K466R or catalytic dead HECTd-C820A.
To inspect ubiquitylation of BMPR2, the disclosures substituted Rpn10 with BMPR2174-558 cytosolic portion fused to the N-CAT. […] Inhibition assays were performed in liquid LB using 96 well-plate with Tecan Sunrise reader high intensity shaking for 9.5 mins rest for 10, 5 mins shake and read at 595 nm. Growth was monitored between 12-36 Hrs as indicated. […]

E1, E2, CAT = experiment: Split-CAT system counter-checks (E1, E2, CAT activity, E. coli toxicity); type: cell-based
Description: as §2
To inspect ubiquitylation of BMPR2, the disclosures substituted Rpn10 with BMPR2174-558 cytosolic portion fused to the N-CAT. […] Inhibition assays were performed in liquid LB using 96 well-plate with Tecan Sunrise reader high intensity shaking for 9.5 mins rest for 10, 5 mins shake and read at 595 nm. Growth was monitored between 12-36 Hrs as indicated.

SMURF1 mRNA = experiment: Screen for modulators of SMURF1 mRNA abundance in PASMCs; type: cell-based, human; details: PASMCs from PAH patients; normalized Ct values
Description: as §1

Compound | GFP signal (SMURF1 promoter) (human SMURF1 promoter) | Inhibition of E6AP S739L, R740G double mutant (E6AP; escape mutant, FIG. 6K) | E6AP activity (E6AP; hyperactive HECTd-K466R E6AP, FIG. 6I) | Effect on E1, E2, or CAT activities (E1, E2, CAT) | SMURF1 expression (mRNA) (SMURF1 mRNA)
CO/C1=C\C(C)=C\[C@@H](C)[C@@H](O)[C@@H](C)C/C(C)=C/C=C/[C@H](OC)[C@@H]([C@@H](C)[C@@H](O)[C@H](C)[C@@]2(O)C[C@@H](O)[C@H](C)[C@@H](C(C)C)O2)OC1=O [bafilomycin A1, reference compound] | increased GFP signal | – | – | – | –
Cc1ccc(-n2ccnc2N2CCN(C(=O)C34CC5CC(CC(C5)C3)C4)CC2)cc1 [i-27, 1-[1-(4-methylphenyl)-imidazol-2-yl]-4-[adamantane-1-carbonyl]piperazine] | – | inhibition was reduced twofold | reduced E6AP activity in a dose-dependent manner | without affecting E1, E2, or CAT activities | –
TGFβ1: transforming growth factor beta 1, agent in SMURF1 modulator screen | increased GFP signal | – | – | – | increase SMURF1 expression
